Where a name gives a salt, the structure may show the parent alone.

The subject of the first experiment is RKO p27 uninduced (proliferating). Kind of experiment: Alamar Blue cell viability assay, anti-proliferative / cytotoxic activity on proliferating RKO cells. As to conditions: Homo sapiens, RKOp27, 72 h, read-out: -log EC50 [mol/l] RKO p27 uninduced (proliferating) (converted). Format: cell-based, human. How it is done: The anti-proliferative / cytotoxic activity of the compounds described herein can be tested on subclones of RKO human colon adenocarcinoma cells (Schmidt et al., Oncogene 19, 2423-2429; 2000) using the Alamar Blue cell viability assay (described in O'Brien et al. Eur J Biochem 267, 5421-5426, 2000). The compounds are dissolved as 10 mM solutions in DMSO and subsequently diluted in semi-logarithmic steps. DMSO dilutions are further diluted 1:100 v:v into Dulbecco's modified Eagle's medium (DMEM) containing 10% fetal calf serum to a final concentration twice as much as the final concentration in the test. RKO subclones are seeded into 96 well flat bottom plates at a density of 4000 cells per well in a volume of 50 µl per well. 24 hours after seeding the 50 µl each of the compound dilutions in DMEM medium are added into each well of the 96 well plate. Each compound dilution is tested as triplicates. Wells containing untreated control cells are filled with 50 µl DMEM medium containing 1% DMSO. The cells are then incubated with the substances for 72 hours at 37°C in a humidified atmosphere containing 5% carbon dioxide. To determine the viability of the cells, 10 µl of an Alamar Blue solution (Biosource) are added and the fluorescence is measured at an extinction of 544 nm and an emission of 590 nm. For the calculation of the cell viability the emission value from untreated cells is set as 100% viability and the emission rates of treated cells are set in relation to the values of untreated cells. Viabilities are expressed as % values. The Graphpad Prism program is used for the calculation of EC50 values for anti-proliferative / cytotoxic activity out of the obtained dose-response curves. […]
For orientation: Resazurin is reduced to fluorescent resorufin, in cell work by metabolically active cells.
Regarding `Cc1nn2c(=O)n(Cc3ccccc3)c(C(C(C)C)N(CCCN)C(=O)c3ccc(Cl)c(Cl)c3)nc2c1Cl` (racemic) [Example 11, N-(3-Amino-n-propyl)-N-[(RS)-1-(3-benzyl-8-chloro-7-methyl-4-oxo-3,4-dihydro-pyrazolo[1,5-a][1,3,5]triazin-2-yl)-2-methyl-n-propyl]-3,4-dichloro-benzamide hydrocloride], the EC50 is 100 to 1000 nM.

For the compound `Cc1ccc(C(=O)N(CCCCN)C(c2nc3c(Cl)c(C)nn3c(=O)n2Cc2ccccc2)C(C)C)cc1` (racemic) [Example 16, N-(4-Amino-n-butyl)-N-[(RS)-1-(3-benzyl-8-chloro-7-methyl-4-oxo-3,4-dihydro-pyrazolo[1,5-a][1,3,5]triazin-2-yl)-2-methyl-n-propyl]-4-methyl-benzamide hydrocloride], the EC50 is 100 to 1000 nM.

Staying with this experiment, now noted: Homo sapiens, RKOp27; RKO colon cancer cells, without Ponasterone A, 72 hours incubation, Alamar Blue; read-out: -log EC50 [mol/l] RKO p27 uninduced (proliferating) (converted).
`Cc1ccc(C(=O)N(CCCN)C(c2nc3c(Cl)c(C)nn3c(=O)n2Cc2ccccc2)C(C)C)cc1` (racemic) [Example 1, N-(3-Amino-n-propyl)-N-[(RS)-1-(3-benzyl-8-chloro-7-methyl-4-oxo-3,4-dihydro-pyrazolo[1,5-a][1,3,5]triazin-2-yl)-2-methyl-n-propyl]-4-methyl-benzamide hydrochloride]: the EC50 is at most 100 nM.

Consider `Cc1ccc(C(=O)N(CCN)C(c2nc3c(Cl)c(C)nn3c(=O)n2Cc2ccccc2)C(C)C)cc1` (racemic) [Example 2, N-(2-Amino-ethyl)-N-[(RS)-1-(3-benzyl-8-chloro-7-methyl-4-oxo-3,4-dihydro-pyrazolo[1,5-a][1,3,5]triazin-2-yl)-2-methyl-n-propyl]-4-methyl-benzamide hydrochloride], for which the EC50 was at most 100 nM.

Turning to `Cc1ccc(C(=O)N(CCCN)C(c2nc3c(Cl)cnn3c(=O)n2Cc2ccccc2)C(C)C)cc1` (racemic) [Example 4, N-(3-Amino-n-propyl)-N-[(RS)-1-(3-benzyl-8-chloro-4-oxo-3,4-dihydro-pyrazolo[1,5-a][1,3,5]triazin-2-yl)-2-methyl-n-propyl]-4-methyl-benzamide hydrochloride], the EC50 was at most 100 nM.

For `Cc1nn2c(=O)n(Cc3ccccc3)c(C(C(C)C)N(CCCN)C(=O)c3ccc(Cl)cc3)nc2c1Cl` (racemic) [Example 5, N-(3-Amino-n-propyl)-N-[(RS)-1-(3-benzyl-8-chloro-7-methyl-4-oxo-3,4-dihydro-pyrazolo[1,5-a][1,3,5]triazin-2-yl)-2-methyl-n-propyl]-4-chloro-benzamide hydrochloride], the EC50 was at most 100 nM.

With `Cc1nn2c(=O)n(Cc3ccccc3)c(C(C(C)C)N(CCCN)C(=O)c3ccc(F)cc3)nc2c1Cl` (racemic) [Example 6, N-(3-Amino-n-propyl)-N-[(RS)-1-(3-benzyl-8-chloro-7-methyl-4-oxo-3,4-dihydro-pyrazolo[1,5-a][1,3,5]triazin-2-yl)-2-methyl-n-propyl]-4-fluoro-benzamide hydrochloride], the EC50 is 100 to 1000 nM.

With `Cc1cccc(C(=O)N(CCCN)C(c2nc3c(Cl)c(C)nn3c(=O)n2Cc2ccccc2)C(C)C)c1` (racemic) [Example 7, N-(3-Amino-n-propyl)-N-[(RS)-1-(3-benzyl-8-chloro-7-methyl-4-oxo-3,4-dihydro-pyrazolo[1,5-a][1,3,5]triazin-2-yl)-2-methyl-n-propyl]-3-methyl-benzamide hydrochloride], the EC50 was at most 100 nM.

With `Cc1nn2c(=O)n(Cc3ccccc3)c(C(C(C)C)N(CCCN)C(=O)c3ccc(Br)cc3)nc2c1Cl` (racemic) [Example 8, N-(3-Amino-n-propyl)-N-[(RS)-1-(3-benzyl-8-chloro-7-methyl-4-oxo-3,4-dihydro-pyrazolo[1,5-a][1,3,5]triazin-2-yl)-2-methyl-n-propyl]-4-bromo-benzamide hydrochloride], the EC50 is at most 100 nM.

As for `Cc1ccc(C(=O)N(CCCN)C(c2nc3cc(OC(F)F)nn3c(=O)n2Cc2ccccc2)C(C)C)cc1` (racemic) [Example 10, N-(3-Amino-n-propyl)-N-{(RS)-1-[3-benzyl-7-(1,1-difluoro-methoxy)-4-oxo-3,4-dihydro-pyrazolo[1,5-a] [1,3,5]triazin-2-yl]-2-methyl-n-propyl}-4-methyl-benzamide hydrochloride], the EC50 is at most 100 nM.

For the compound `Cc1nn2c(=O)n(Cc3ccccc3)c(C(C(C)C)N(CCCN)C(=O)c3cccc(Cl)c3Cl)nc2c1Cl` (racemic) [Example 14, N-(3-Amino-n-propyl)-N-[(RS)-1-(3-benzyl-8-chloro-7-methyl-4-oxo-3,4-dihydro-pyrazolo[1,5-a][1,3,5]triazin-2-yl)-2-methyl-n-propyl]-2,3-dichloro-benzamide hydrochloride], the EC50 is 100 to 1000 nM.

With `COc1ccc(C(=O)N(CCCN)C(c2nc3c(Cl)c(C)nn3c(=O)n2Cc2ccccc2)C(C)C)cc1` (racemic) [Example 15, N-(3-Amino-n-propyl)-N-[(RS)-1-(3-benzyl-8-chloro-7-methyl-4-oxo-3,4-dihydro-pyrazolo[1,5-a][1,3,5]triazin-2-yl)-2-methyl-n-propyl]-4-methoxy-benzamide hydrochloride], the EC50 was at most 100 nM.

For `Cc1ccc(C(=O)N(CCCN)C(c2nc3c(Cl)c(OC(F)F)nn3c(=O)n2Cc2ccccc2)C(C)C)cc1` (racemic) [Example 17, N-(3-Amino-n-propyl)-N-{(RS)-1-[3-benzyl-8-chloro-7-(1,1-difluoro-methoxy)-4-oxo-3,4-dihydro-pyrazolo[1,5-a] [1,3,5]triazin-2-yl]-2-methyl-n-propyl}-4-methyl-benzamide hydrochloride], the EC50 is at most 100 nM.

For `COc1cc2nc(C(C(C)C)N(CCCN)C(=O)c3ccc(C)cc3)n(Cc3ccccc3)c(=O)n2n1` (racemic) [Example 20, N-(3-Amino-n-propyl)-N-[(RS)-1-(3-benzyl-7-methoxy-4-oxo-3,4-dihydro-pyrazolo[1,5-a][1,3,5]triazin-2-yl)-2-methyl-n-propyl]-4-methyl-benzamide hydrochlorid], the EC50 is at most 100 nM.

On to `COc1nn2c(=O)n(Cc3ccccc3)c(C(C(C)C)N(CCCN)C(=O)c3ccc(C)cc3)nc2c1Cl` (racemic) [Example 21, N-(3-Amino-n-propyl)-N-[(RS)-1-(3-benzyl-8-chloro-7-methoxy-4-oxo-3,4-dihydro-pyrazolo[1,5-a][1,3,5]triazin-2-yl)-2-methyl-n-propyl]-4-methyl-benzamide hydrochloride], for which the EC50 is at most 100 nM.

Still in this experiment, the particulars now being: RKO colon cancer cells, without Ponasterone A, 72 hours incubation, Alamar Blue.
With `Cc1ccc(C(=O)N(CCCN)C(c2nc3c(Cl)c(C)nn3c(=O)n2Cc2ccccc2)C(C)C)cc1` (racemic) [Example 1a, N-(3-Amino-n-propyl)-N-[(RS)-1-(3-benzyl-8-chloro-7-methyl-4-oxo-3,4-dihydro-pyrazolo[1,5-a][1,3,5]triazin-2-yl)-2-methyl-n-propyl]-4-methyl-benzamide], the “-log EC50 [mol/l] RKO p27 uninduced (proliferating)” value (from here on “-log EC50 [mol/l] RKO p27 uninduced”) was “-log EC50 [mol/l] RKO p27 uninduced (proliferating) >= 7.0”.

For `Cc1nn2c(=O)n(Cc3ccccc3)c(C(C(C)C)N(CCCN)C(=O)c3ccc(C(F)(F)F)cc3)nc2c1Cl.Cl` (racemic) [Example 9, N-(3-Amino-n-propyl)-N-[(RS)-1-(3-benzyl-8-chloro-7-methyl-4-oxo-3,4-dihydro-pyrazolo[1,5-a][1,3,5]triazin-2-yl)-2-methyl-n-propyl]-trifluoromethyl-benzamide hydrochloride], the “-log EC50 [mol/l] RKO p27 uninduced” value was “-log EC50 [mol/l] RKO p27 uninduced (proliferating) >= 7.0”.

Take `Cc1ccc(C(=O)N(CCCN)C(c2nc3c(Cl)c(C)nn3c(=O)n2Cc2ccccc2)C(C)C)c(F)c1.Cl` (racemic) [Example 12, N-(3-Amino-n-propyl)-N-[(RS)-1-(3-benzyl-8-chloro-7-methyl-4-oxo-3,4-dihydro-pyrazolo[1,5-a][1,3,5]triazin-2-yl)-2-methyl-n-propyl]-2-fluoro-4-methyl-benzamide hydrocloride]: the “-log EC50 [mol/l] RKO p27 uninduced” value is “-log EC50 [mol/l] RKO p27 uninduced (proliferating) >= 7.0”.

As to `Cc1ccc(C(=O)N(CCCN)C(c2nc3c(Cl)c(C)nn3c(=O)n2Cc2ccccc2)C(C)C)cc1F.Cl` (racemic) [Example 13, N-(3-Amino-n-propyl)-N-[(RS)-1-(3-benzyl-8-chloro-7-methyl-4-oxo-3,4-dihydro-pyrazolo[1,5-a][1,3,5]triazin-2-yl)-2-methyl-n-propyl]-3-fluoro-4-methyl-benzamide hydrocloride], the “-log EC50 [mol/l] RKO p27 uninduced” value is “-log EC50 [mol/l] RKO p27 uninduced (proliferating) >= 7.0”.

On to `Cc1ccc(C(=O)N(CCCN(C)C)C(c2nc3c(Cl)c(C)nn3c(=O)n2Cc2ccccc2)C(C)C)cc1` (racemic) [Example 19, N-[(RS)-(3-Benzyl-8-chloro-7-methyl-4-oxo-3,4-dihydro-pyrazolo[1,5-a][1,3,5]triazin-2-yl)-methyl-n-propyl]-N-(3-dimethylamino-n-propyl)-4-methyl-benzamide], for which the “-log EC50 [mol/l] RKO p27 uninduced” value is “-log EC50 [mol/l] RKO p27 uninduced (proliferating) >= 7.0”.
